Data taken from patent US9216981B2, “Purinylpyridinylamino-2,4-difluorophenyl sulfonamide derivative, pharmaceutically acceptable salt thereof, preparation method thereof, and pharmaceutical composition with inhibitory activity against Raf kinase, containing same as active ingredient” (Medpacto, Inc., priority 2010, dated 2015).

Tests used:
A375P cell line = test: B-Raf cell activity inhibition (A375P growth inhibition, MTT assay); format: cell-based; settings: A375P human melanoma, V600E mutant of B-Raf, 72 hours
Description: To check the B-Raf cell activity inhibitory capability of the compounds of the present invention, the following experiments were conducted in A375P cell line (ATCC). […] A375 cell was maintained in DMEM supplemented with 10% fetal bovine serum, glutamine (2 mM), penicillin (100 U/mL), and streptomycin (100 μg/mL). The cell was maintained at 37° C., and in 5% CO2 and 100% humidity. To conduct the growth inhibition test, the cell was plated by using a white 384-well microplate, with 1000 cells/20 μl plated per 1 well. After 24 hours, 5 μl of 5× stock solution of drug was added. All the drugs were initially prepared with 200× stock solution in DMSO, and the final concentration of DMSO was 0.5%. The cell was incubated at 37° C. for 72 hours. For MTT assay, ‘CellTiter 96 (R) Non-Radioactive Cell Proliferation Assay (G4100)’ kit by Promega Corp. was used. 15 μl of dye solution of the Promega kit was put into each well and was cultured in the incubator for 4 hours. And 100 μl of each Solubilization/Stop Solution substance of the kit was added and fixed in the incubator for 24 hours again. And then, absorbance was measured by using a 96-well plate reader with 570 nm of absorbance.

B-Raf = B-Raf (Homo sapiens (Human), UniProt P15056); test: B-Raf kinase activity (B-Raf/MEK1/MAPK2 cascade, MBP phosphorylation, [γ-32P]ATP); format: biochemical; settings: activated B-Raf, inactivated MEK1, inactivated MAPK2, 30° C., 30 minutes, read-out: B-Raf Enzyme Activity
Chain of B-Raf (P15056 whole entry): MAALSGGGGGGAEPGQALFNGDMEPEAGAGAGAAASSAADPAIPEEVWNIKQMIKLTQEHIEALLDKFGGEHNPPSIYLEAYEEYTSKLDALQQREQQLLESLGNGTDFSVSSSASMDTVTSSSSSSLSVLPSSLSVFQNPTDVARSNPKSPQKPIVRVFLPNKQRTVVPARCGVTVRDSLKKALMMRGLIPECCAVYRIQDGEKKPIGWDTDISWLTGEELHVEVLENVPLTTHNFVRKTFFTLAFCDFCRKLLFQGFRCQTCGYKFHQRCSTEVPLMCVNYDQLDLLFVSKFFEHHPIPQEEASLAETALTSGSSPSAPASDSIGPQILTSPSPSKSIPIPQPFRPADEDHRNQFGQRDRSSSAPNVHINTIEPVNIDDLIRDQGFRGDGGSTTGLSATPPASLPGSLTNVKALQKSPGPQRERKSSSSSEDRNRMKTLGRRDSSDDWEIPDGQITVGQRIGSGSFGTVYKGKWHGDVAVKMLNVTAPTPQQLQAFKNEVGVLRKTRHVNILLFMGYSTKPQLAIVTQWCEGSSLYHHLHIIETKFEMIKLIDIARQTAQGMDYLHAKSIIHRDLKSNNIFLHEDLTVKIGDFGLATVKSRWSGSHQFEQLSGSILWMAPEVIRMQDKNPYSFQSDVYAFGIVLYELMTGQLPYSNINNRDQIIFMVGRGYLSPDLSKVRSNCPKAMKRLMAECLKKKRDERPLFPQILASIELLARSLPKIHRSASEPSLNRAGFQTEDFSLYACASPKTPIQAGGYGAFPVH
Description: To check the B-Raf kinase inhibitory activity of the compounds of the present invention, the following experiments were conducted.
20 μl of diluting solvent (20 mM MOPS, pH 7.2, 25 mM β-glycerol phosphate, 5 mM EGTA, 1 mM sodium orthovanadate, 1 mM dithiothreitol) and 10 μl of Mg/ATP mixed solution (500 μM ATP, 75 mM magnesium chloride) were added into a centrifuge tube, the derivative compound of Formula 1 was added or the compounds of the Examples were not added as a control group, and then 1 ng of activated B-Raf, 0.4 ng of inactivated MEK1, and 1 μg of inactivated MAPK2 were added. The solutions in the tube were collected on the bottom via centrifugation and were reacted at 30° C. for 30 minutes. After taking 4 μl of the mixed solution, the test proceeded to the next step.
(2) Phosphorylation of Matrix Protein MBP by MAPK2
10 μl of diluting solvent, 20 μg of MBP used as a matrix, and 10 μl of diluted [γ-32P]ATP (1 μCi/μL) were added into the 4 μl of the mixed solution obtained from (1). The solutions in the tube were collected on the bottom via centrifugation and were reacted at 30° C. for 30 minutes. And 25 μl of the reacted solution was put carefully on the center of a filter paper (2 cm×2 cm P81) for 30 seconds. Afterwards, the filter paper was cleaned with 0.75% phosphoric acid for 10 minutes three times and with acetone for 5 minutes one time. The filter paper was then moved to a scintillation vial and 5 ml of scintillation cocktail was added thereto. The inhibition rate (IC50) over B-Raf activity was measured by reading radioactivity through a scintillation counter while comparing to the control group.

Row | Structure (SMILES) | IC50 (A375P cell line) [nM] | IC50 (B-Raf) [nM]
1 | Cc1c(Cl)cccc1S(=O)(=O)Nc1ccc(F)c(Nc2ncccc2-c2ncnc3[nH]cnc23)c1F [Example 14, N-(3-(3-(9H-purin-6-yl)pyridin-2-ylamino)-2,4-difluorophenyl)-3-chloro-2-methyl benzenesulfonamide] | 6 | 2
2 | O=S(=O)(Nc1ccc(F)c(Nc2ncccc2-c2ncnc3[nH]cnc23)c1F)c1ccco1 [Example 15, N-(3-(3-(9H-purin-6-yl)pyridin-2-ylamino)-2,4-difluorophenyl)furan-2-sulfonamide] | 11000 | 1
3 | COC(=O)c1sccc1S(=O)(=O)Nc1ccc(F)c(Nc2ncccc2-c2ncnc3[nH]cnc23)c1F [Example 16, Methyl-3-(N-(3-(3-(9H-purin-6-yl)pyridin-2-ylamino)-2,4-difluorophenyl)sulfamoyl)thiophene-2-carboxylate] | 9600 | 1500
4 | O=S(=O)(Nc1ccc(F)c(Nc2ncccc2-c2ncnc3[nH]cnc23)c1F)c1ccsc1 [Example 17, N-(3-(3-(9H-purin-6-yl)pyridin-2-ylamino)-2,4-difluorophenyl)thiophene-3-sulfonamide] | 40 | 7
5 | O=S(=O)(Nc1ccc(F)c(Nc2ncccc2-c2ncnc3[nH]cnc23)c1F)c1ccoc1 [Example 18, N-(3-(3-(9H-purin-6-yl)pyridin-2-ylamino)-2,4-difluorophenyl)furan-3-sulfonamide] | 2 | 1
6 | O=S(=O)(Nc1ccc(F)c(Nc2ncccc2-c2ncnc3[nH]cnc23)c1F)C1CC1 [Example 19, N-(3-(3-(9H-purin-6-yl)pyridin-2-ylamino)-2,4-difluorophenyl)cyclopropansulfonamide] | 250 | 50
7 | Cc1nc(C)c(S(=O)(=O)Nc2ccc(F)c(Nc3ncccc3-c3ncnc4[nH]cnc34)c2F)s1 [Example 20, N-(3-(3-(9H-purin-6-yl)pyridin-2-ylamino)-2,4-difluorophenyl)-2,4-dimethylthiazole-5-sulfonamide] | 700 | 160
8 | O=S(=O)(Nc1ccc(F)c(Nc2ncccc2-c2ncnc3[nH]cnc23)c1F)N1CCOCC1 [Example 21, N-(3-(3-(9H-purin-6-yl)pyridin-2-ylamino)-2,4-difluorophenyl)morpholine-4-sulfonamide] | 360 | 1300
9 | Cn1cnc(S(=O)(=O)Nc2ccc(F)c(Nc3ncccc3-c3ncnc4[nH]cnc34)c2F)c1 [Example 22, N-(3-(3-(9H-purin-6-yl)pyridin-2-ylamino)-2,4-difluorophenyl)-1-methyl-1-imidazole-4-sulfonamide] | 1000 | 1800
10 | Cc1ccc(S(=O)(=O)Nc2ccc(F)c(Nc3ncccc3-c3ncnc4[nH]cnc34)c2F)o1 [Example 23, N-(3-(3-(9H-purin-6-yl)pyridin-2-ylamino)-2,4-difluorophenyl)-5-methylfuran-2-sulfonamide] | 60 | 15
11 | Cc1cc(S(=O)(=O)Nc2ccc(F)c(Nc3ncccc3-c3ncnc4[nH]cnc34)c2F)c(C)o1 [Example 25, N-(3-(3-(9H-purin-6-yl)pyridin-2-ylamino)-2,4-difluorophenyl)-2,5-dimethylfuran-3-sulfonamide] | 100 | 15
12 | Cc1cc(S(=O)(=O)Nc2ccc(F)c(Nc3ncccc3-c3ncnc4[nH]cnc34)c2F)c(C(F)(F)F)o1 [Example 26, N-(3-(3-(9H-purin-6-yl)pyridin-2-ylamino)-2,4-difluorophenyl)-5-methyl-2-(trifluoromethyl)furan-3-sulfonamide] | 330 | 30
13 | Cc1cccc(Cl)c1S(=O)(=O)Nc1ccc(F)c(Nc2ncccc2-c2ncnc3[nH]cnc23)c1F [Example 27, N-(3-(3-(9H-purin-6-yl)pyridin-2-ylamino)-2,4-difluorophenyl)-2-chloro-6-methylbenzenesulfonamide] | 760 | 80
14 | O=S(=O)(Nc1ccc(F)c(Nc2ncccc2-c2ncnc3[nH]cnc23)c1F)c1ccc(F)c(Cl)c1 [Example 28, N-(3-(3-(9H-purin-6-yl)pyridin-2-ylamino)-2,4-difluorophenyl)-3-chloro-4-fluorobenzenesulfonamide] | 1930 | 300
15 | O=S(=O)(Nc1ccc(F)c(Nc2ncccc2-c2ncnc3[nH]cnc23)c1F)c1cccc(Cl)c1F [Example 29, N-(3-(3-(9H-purin-6-yl)pyridin-2-ylamino)-2,4-difluorophenyl)-3-chloro-2-fluorobenzenesulfonamide] | 720 | 80
16 | O=S(=O)(Nc1ccc(F)c(Nc2ncccc2-c2ncnc3[nH]cnc23)c1F)c1cccnc1 [Example 30, N-(3-(3-(9H-purin-6-yl)pyridin-2-ylamino)-2,4-difluorophenyl)pyridin-3-sulfonamide] | 70 | 4
17 | Cc1ccccc1S(=O)(=O)Nc1ccc(F)c(Nc2ncccc2-c2ncnc3[nH]cnc23)c1F [Example 31, N-(3-(3-(9H-purin-6-yl)pyridin-2-ylamino)-2,4-difluorophenyl)-2-methylbenzenesulfonamide] | 670 | 50
18 | O=S(=O)(Nc1ccc(F)c(Nc2ncccc2-c2ncnc3[nH]cnc23)c1F)c1ccccc1Cl [Example 32, N-(3-(3-(9H-purin-6-yl)pyridin-2-ylamino)-2,4-difluorophenyl)-2-chloro benzenesulfonamide] | 440 | 30
19 | O=S(=O)(Nc1ccc(F)c(Nc2ncccc2-c2ncnc3[nH]cnc23)c1F)c1cccc(Cl)c1 [Example 33, N-(3-(3-(9H-purin-6-yl)pyridin-2-ylamino)-2,4-difluorophenyl)-3-chloro benzenesulfonamide] | 770 | 80
20 | O=S(=O)(Nc1ccc(F)c(Nc2ncccc2-c2ncnc3[nH]cnc23)c1F)c1cccc(Cl)c1Cl [Example 34, N-(3-(3-(9H-purin-6-yl)pyridin-2-ylamino)-2,4-difluorophenyl)-2,3-chlorobenzenesulfonamide] | 500 | 40
21 | O=S(=O)(Nc1ccc(F)c(Nc2ncccc2-c2ncnc3[nH]cnc23)c1F)c1ccccc1 [Example 35, N-(3-(3-(9H-purin-6-yl)pyridin-2-ylamino)-2,4-difluorophenyl)benzenesulfonamide] | 160 | 20
22 | O=S(=O)(Nc1ccc(F)c(Nc2ncccc2-c2ncnc3[nH]cnc23)c1F)c1cccc2c1OCC2 [Example 36, N-(3-(3-(9H-purin-6-yl)pyridin-2-ylamino)-2,4-difluorophenyl)-2,3-dihydrobenzofuran-7-sulfonamide] | 8370 | 1020
23 | O=S(=O)(Nc1ccc(F)c(Nc2ncccc2-c2ncnc3[nH]cnc23)c1F)c1cccc2ccoc12 [Example 37, N-(3-(3-(9H-purin-6-yl)pyridin-2-ylamino)-2,4-difluorophenyl)benzofuran-7-sulfonamide] | 810 | 90
24 | O=S(=O)(Nc1ccc(F)c(Nc2ncccc2-c2ncnc3[nH]cnc23)c1F)c1cccc2c1OCCC2 [Example 38, N-(3-(3-(9H-purin-6-yl)pyridin-2-ylamino)-2,4-difluorophenyl)chromane-8-sulfonamide] | 7190 | 900
25 | Cc1nc2ccc(S(=O)(=O)Nc3ccc(F)c(Nc4ncccc4-c4ncnc5[nH]cnc45)c3F)cc2s1 [Example 39, N-(3-(3-(9H-purin-6-yl)pyridin-2-ylamino)-2,4-difluorophenyl)-2-methylbenzo[d]thiazole-6-sulfonamide] | 2930 | 400
26 | Cn1ccc2cc(S(=O)(=O)Nc3ccc(F)c(Nc4ncccc4-c4ncnc5[nH]cnc45)c3F)ccc21 [Example 40, N-(3-(3-(9H-purin-6-yl)pyridin-2-ylamino)-2,4-difluorophenyl)-1-methyl-1H-indole-5-sulfonamide] | > 15000 | > 10000
27 | Cn1ccc2c(S(=O)(=O)Nc3ccc(F)c(Nc4ncccc4-c4ncnc5[nH]cnc45)c3F)cccc21 [Example 41, N-(3-(3-(9H-purin-6-yl)pyridin-2-ylamino)-2,4-difluorophenyl)-1-methyl-1H-indole-4-sulfonamide] | 4200 | 550
